Source: ChEMBL document CHEMBL1201862, “PubChem BioAssay data set” (2004)
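Values below derive from 48-hour exposures of cells grown in 96-well plates, with endpoints linearly interpolated between the two concentrations bracketing the appropriate inhibition level. At the GI50, growth is halved.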 Calls of active or inactive are those of the source. No stated cut-off is given here; in the data, active = GI50 up to about 1.1 µM and inactive = higher.

Assays:
Assay in all cases: inhibition of tumour cell growth, NCI panel, 48 h
HOP-92 = system: HOP-92
HT-29 = system: HT-29
NCI/ADR-RES = system: NCI/ADR-RES
NCI-H460 = system: NCI-H460
PC-3 = system: PC-3
KM12 = system: KM12
BT-549 = system: BT-549
ACHN = system: ACHN
RPMI-8226 = system: RPMI-8226
HCT-116 = system: HCT-116
HOP-62 = system: HOP-62
OVCAR-4 = system: OVCAR-4
SF-539 = system: SF-539
COLO 205 = system: COLO 205
786-0 = system: 786-0
SW-620 = system: SW-620
SN12C = system: SN12C
MDA-MB-231 = system: MDA-MB-231
A549 = system: A549
A498 = system: A498

Measured: GI50

C[C@H]1CCCCC[C@@H]2CC(=O)CC2C(=O)CCC(=O)O1 (some centres not stated)
inactive: HOP-92 > 100 µM | HT-29 > 100 µM | NCI/ADR-RES 52.6 µM | NCI-H460 > 100 µM | PC-3 > 100 µM | KM12 > 100 µM | BT-549 > 100 µM | ACHN > 100 µM | RPMI-8226 > 100 µM | HCT-116 > 100 µM | HOP-62 > 100 µM | OVCAR-4 > 100 µM | SF-539 > 100 µM | COLO 205 > 100 µM | 786-0 > 100 µM | SW-620 > 100 µM | SN12C > 100 µM | MDA-MB-231 > 100 µM | A549 > 100 µM

CCOC(=O)C1(Cc2ccc3c(c2)CCC3)Cc2cc3c(cc2C1=O)CCC3 (configuration not stated)
inactive: HT-29 31.6 µM | NCI/ADR-RES 36 µM | NCI-H460 41.9 µM | PC-3 16.1 µM | KM12 > 50.9 µM | BT-549 76.7 µM | ACHN > 69.8 µM | RPMI-8226 19.2 µM | HCT-116 16.7 µM | A498 > 42.7 µM | HOP-62 > 100 µM | OVCAR-4 52 µM | SF-539 > 100 µM | COLO 205 41.7 µM | 786-0 > 100 µM | SW-620 > 85.1 µM | SN12C 66.2 µM | MDA-MB-231 48.4 µM | A549 44 µM

c1ccc(NNC2=NCCN2)cc1
inactive: HT-29 > 100 µM | NCI/ADR-RES > 100 µM | NCI-H460 > 100 µM | PC-3 > 100 µM | KM12 > 100 µM | BT-549 > 100 µM | ACHN > 100 µM | RPMI-8226 > 100 µM | HCT-116 > 100 µM | A498 > 100 µM | HOP-62 > 100 µM | OVCAR-4 > 100 µM | SF-539 > 100 µM | COLO 205 > 100 µM | 786-0 > 100 µM | SW-620 > 100 µM | SN12C > 100 µM | MDA-MB-231 > 100 µM | A549 > 100 µM

O=Cc1ccc(OCc2cccc(COc3ccc(/C=N\Nc4ccc([N+](=O)[O-])cc4[N+](=O)[O-])cc3)n2)cc1
inactive: HT-29 > 100 µM | NCI/ADR-RES > 100 µM | NCI-H460 > 100 µM | PC-3 > 100 µM | KM12 > 100 µM | BT-549 > 100 µM | ACHN > 100 µM | RPMI-8226 > 100 µM | HCT-116 > 100 µM | A498 > 100 µM | HOP-62 19.6 µM | OVCAR-4 > 100 µM | COLO 205 > 100 µM | 786-0 > 100 µM | SW-620 > 100 µM | SN12C > 100 µM | MDA-MB-231 43.6 µM | A549 > 100 µM

CCOC(=O)C1(C(=O)OCC)OC(C)=NC1(C(=O)OC)C(=O)OC
inactive: HT-29 > 100 µM | NCI/ADR-RES > 100 µM | NCI-H460 > 100 µM | PC-3 > 100 µM | KM12 > 100 µM | BT-549 > 31.6 µM | ACHN > 100 µM | HCT-116 > 100 µM | A498 > 100 µM | HOP-62 > 100 µM | OVCAR-4 > 100 µM | SF-539 > 100 µM | COLO 205 > 100 µM | 786-0 > 100 µM | SW-620 > 100 µM | SN12C > 100 µM | MDA-MB-231 > 100 µM | A549 > 100 µM

c1ccc(C2C3=C(CCCC3)Nc3nnnn32)cc1 (configuration not stated)
inactive: NCI/ADR-RES 98.9 µM | NCI-H460 12.9 µM | PC-3 68.1 µM | KM12 > 100 µM | BT-549 34.8 µM | ACHN 82.4 µM | HCT-116 > 100 µM | A498 19.2 µM | HOP-62 > 100 µM | SF-539 > 100 µM | COLO 205 > 100 µM | 786-0 > 100 µM | SW-620 > 100 µM | SN12C > 100 µM | MDA-MB-231 > 100 µM | A549 64 µM

NNC(=O)C1(NC(=O)c2ccccc2)C(c2ccccc2)C(c2ccccc2)=NN1c1ccccc1 (configuration not stated)
inactive: NCI/ADR-RES 32.1 µM | NCI-H460 43.8 µM | PC-3 24.4 µM | KM12 35.1 µM | BT-549 71.8 µM | ACHN 35.5 µM | RPMI-8226 21.1 µM | HCT-116 37 µM | A498 > 100 µM | HOP-62 34 µM | OVCAR-4 12.8 µM | SF-539 44.2 µM | COLO 205 45.5 µM | 786-0 50.5 µM | SW-620 46.6 µM | SN12C 63.2 µM | MDA-MB-231 66.8 µM | A549 43.5 µM

O=C(O)c1nc2ccc(C(F)(F)F)cc2nc1Nc1ccc(Cl)c(Cl)c1
inactive: HT-29 9.16 µM | NCI/ADR-RES 5.96 µM | NCI-H460 7.41 µM | PC-3 4.58 µM | KM12 6.98 µM | BT-549 2.62 µM | ACHN 7.67 µM | HCT-116 5.12 µM | A498 13.6 µM | HOP-62 7.85 µM | OVCAR-4 6.98 µM | COLO 205 11.6 µM | 786-0 10.5 µM | SW-620 8.15 µM | SN12C 7.67 µM | MDA-MB-231 6.05 µM

C(=N\N=C1NCCCCN1)/c1ccc2ccccc2c1
inactive: HOP-92 14.4 µM | HT-29 22.8 µM | NCI/ADR-RES 98.2 µM | NCI-H460 22.3 µM | PC-3 29.6 µM | KM12 26.9 µM | BT-549 37.2 µM | ACHN 45.4 µM | RPMI-8226 27.5 µM | HCT-116 33.7 µM | HOP-62 42.2 µM | OVCAR-4 43.1 µM | SF-539 20.4 µM | COLO 205 15.9 µM | 786-0 23.1 µM | SW-620 22.7 µM | SN12C 39.9 µM | MDA-MB-231 31.4 µM | A549 50.2 µM

COc1ccc(/C=C2\CCC(C)C3=C(c4ccc(OC)c(OC)c4)C(C#N)=C(N)OC32)cc1OC (configuration not stated)
inactive: HT-29 2.75 µM | NCI/ADR-RES 2.65 µM | NCI-H460 3.03 µM | PC-3 3.13 µM | KM12 3.3 µM | BT-549 3.51 µM | ACHN 3.66 µM | RPMI-8226 2.04 µM | HCT-116 2.82 µM | A498 3.76 µM | SF-539 1.55 µM | COLO 205 2.76 µM | 786-0 3.35 µM | SW-620 4.29 µM | SN12C 3.45 µM | MDA-MB-231 2.95 µM

c1cc(CSP234N5CCN2CCN3CCN4CC5)cc(CSP234N5CCN2CCN3CCN4CC5)c1
inactive: HOP-92 21.5 µM | HT-29 19.1 µM | NCI/ADR-RES 57.4 µM | NCI-H460 26.6 µM | PC-3 25.3 µM | KM12 19.5 µM | BT-549 19.2 µM | ACHN 33 µM | RPMI-8226 14.5 µM | HCT-116 > 100 µM | HOP-62 28.6 µM | OVCAR-4 32.9 µM | SF-539 22.9 µM | COLO 205 23 µM | 786-0 > 100 µM | SW-620 28.8 µM | SN12C 58.6 µM | MDA-MB-231 14.8 µM | A549 40.1 µM
